2 compounds from PMC4084896 (PLoS ONE, 2014) can be followed below.

A short description of series [1]: MTT cytotoxicity test in AZ-AHR cells. The series is classed as cell-based, human. The conditions noted are these: human; 24 h incubation, six passages; read-out: AZ-AHR viability - MTT IC50. An excerpt: (§1) A stably transfected gene reporter cell line AZ-AHR, derived from human hepatoma HepG2 cells transfected with a construct containing several AhR binding sites upstream of a luciferase reporter gene, was used for assessment of AhR transcriptional activity. A stably transfected gene reporter cell line AZ-GR, derived from human cervix carcinoma HeLa cells transfected with a construct containing several GR response elements upstream of a luciferase reporter gene, was used for assessment of GR transcriptional activity. Cells were incubated for 24 h with tested compounds and/or vehicle (DMSO; 0.1% v/v), in the presence or absence of TCDD (5 nM; AZ-AHR cells) or DEX (100 nM; AZ-GR cells). After the treatments, cells were lysed and luciferase activity was measured. In parallel, cell viability was determined by conventional MTT test.
(§2) Prior to the agonist or antagonist experiments, the cytotoxicity of tested compounds was assessed using the conventional MTT assay. […] The vehicle was DMSO (0.1% v/v). After the treatment, a MTT test was performed.

The target in series [2] is T1, aryl hydrocarbon receptor AhR (Homo sapiens, UniProt P35869).
T1 construct: endogenous in cells; host or cells: AZ-AHR (stably transfected reporter line derived from HepG2)
T1 sequence (P35869 11-848): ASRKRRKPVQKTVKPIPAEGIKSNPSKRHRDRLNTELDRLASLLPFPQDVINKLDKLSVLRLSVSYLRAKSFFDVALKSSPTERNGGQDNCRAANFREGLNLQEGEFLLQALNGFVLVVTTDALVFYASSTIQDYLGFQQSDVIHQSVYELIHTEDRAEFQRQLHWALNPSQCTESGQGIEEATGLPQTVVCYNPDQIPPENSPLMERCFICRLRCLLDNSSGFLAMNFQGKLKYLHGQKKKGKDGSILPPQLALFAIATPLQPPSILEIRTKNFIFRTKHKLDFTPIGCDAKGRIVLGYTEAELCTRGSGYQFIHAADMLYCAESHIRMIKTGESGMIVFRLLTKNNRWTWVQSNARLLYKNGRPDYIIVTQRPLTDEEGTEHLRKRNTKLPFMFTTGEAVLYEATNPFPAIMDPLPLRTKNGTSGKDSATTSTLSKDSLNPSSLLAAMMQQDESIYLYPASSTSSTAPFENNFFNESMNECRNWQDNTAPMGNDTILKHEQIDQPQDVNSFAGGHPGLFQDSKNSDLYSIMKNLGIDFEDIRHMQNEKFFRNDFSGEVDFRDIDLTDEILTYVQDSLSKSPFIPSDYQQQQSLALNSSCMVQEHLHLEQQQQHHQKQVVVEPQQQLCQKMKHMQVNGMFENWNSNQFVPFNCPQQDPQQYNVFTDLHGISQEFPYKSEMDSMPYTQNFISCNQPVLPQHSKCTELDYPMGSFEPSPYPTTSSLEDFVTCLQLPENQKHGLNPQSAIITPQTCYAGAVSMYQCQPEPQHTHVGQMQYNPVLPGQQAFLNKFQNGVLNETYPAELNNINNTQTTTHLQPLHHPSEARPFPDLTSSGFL
The series is described as follows: AhR gene reporter assay in AZ-AHR cells, agonist mode. It is filed as cell-based. The conditions noted are these: for EC50: 24 h, agonist mode.
From the text: as §1
(§3) Gene reporter assays were performed in two different experimental layouts. In agonist mode, cells were treated with increasing concentrations of tested compounds, and the half-maximal effective concentrations (EC50) were calculated.

Series [3] addresses T1, aryl hydrocarbon receptor AhR. The series is described as follows: AhR gene reporter assay in AZ-AHR cells, antagonist mode (TCDD 5 nM). It is filed as cell-based. The conditions noted are these: 24 h, in the presence of TCDD 5 nM.
From the text: as §1, §3

Series [4] in a line: MTT cytotoxicity test in primary human hepatocytes. It is filed as cell-based. The conditions noted are these: primary human hepatocytes, read-out: viability, % of control value.
From the text: as §1
(§4) The cells were treated for 24 h with (+)-KET, (−)-KET and commercial rac-KET (1 µM, 30 µM, 50 µM), and with TCDD (5 nM) and vehicle (DMSO; 0.1% V/V). […] In the cytotoxicity assay, we found all forms of KET highly toxic against human hepatocytes at the concentration 50 µM.

For another series, the system named is AZ-GR cells. The series is described as follows: MTT cytotoxicity test in AZ-GR cells. It is filed as cell-based, human. The conditions noted are these: 24 h incubation, read-out: AZ-GR viability - MTT IC50.
From the text: as §1
(§5) There is multiple evidence for the role of glucocorticoid receptor (GR) in regulation of AhR activity. […] Gene reporter assays were performed in agonist and antagonist mode (similarly as described in section 3.1.).

Series [5] deals with T2, glucocorticoid receptor (GR) (Homo sapiens, UniProt P04150).
T2 sequence (P04150 1-777): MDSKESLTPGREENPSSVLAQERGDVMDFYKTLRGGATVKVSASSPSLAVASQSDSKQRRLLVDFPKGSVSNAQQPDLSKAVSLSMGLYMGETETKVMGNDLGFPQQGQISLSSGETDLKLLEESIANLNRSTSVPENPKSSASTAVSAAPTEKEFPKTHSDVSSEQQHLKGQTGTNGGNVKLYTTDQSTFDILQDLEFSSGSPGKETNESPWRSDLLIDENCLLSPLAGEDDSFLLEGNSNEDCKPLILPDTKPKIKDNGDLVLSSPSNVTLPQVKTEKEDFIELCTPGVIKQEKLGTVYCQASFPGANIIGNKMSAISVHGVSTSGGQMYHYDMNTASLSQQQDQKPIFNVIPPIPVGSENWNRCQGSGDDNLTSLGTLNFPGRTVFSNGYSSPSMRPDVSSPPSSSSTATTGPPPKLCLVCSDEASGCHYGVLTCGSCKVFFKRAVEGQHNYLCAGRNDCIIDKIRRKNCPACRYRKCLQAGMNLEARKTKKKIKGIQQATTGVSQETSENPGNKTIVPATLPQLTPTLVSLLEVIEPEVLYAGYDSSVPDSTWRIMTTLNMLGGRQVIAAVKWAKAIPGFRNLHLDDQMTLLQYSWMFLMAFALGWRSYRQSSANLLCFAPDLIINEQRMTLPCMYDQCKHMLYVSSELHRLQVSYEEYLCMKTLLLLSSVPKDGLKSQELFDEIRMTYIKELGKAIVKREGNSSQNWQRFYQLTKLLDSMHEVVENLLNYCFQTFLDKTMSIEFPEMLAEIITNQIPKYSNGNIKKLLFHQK
The series is described as follows: GR gene reporter assay in AZ-GR cells, agonist mode. The conditions noted are these: up to / at 100 µM, 24 h. The series is classed as cell-based.
From the text: as §1, §5

The subject of series [6] is CYP1A1 catalytic activity (7-ethoxyresorufin-O-deethylase).
The subject of another series is AZ-AHR cells. The series is described as follows: MTT cytotoxicity test in AZ-AHR cells. It is filed as cell-based, human. The conditions noted are these: 24 h incubation, six passages; read-out: AZ-AHR viability - MTT IC50.
From the text: as §1, §2

The test system of series [7] is primary human hepatocytes. The series is described as follows: MTT cytotoxicity test in primary human hepatocytes. It is filed as cell-based. The conditions noted are these: 50 µM, 24 h.
From the text: as §1, §4

Like-named read-outs stand apart in the source and are kept apart here.

Consider `CC(=O)N1CCN(c2ccc(OCC3COC(Cn4ccnc4)(c4ccc(Cl)cc4Cl)O3)cc2)CC1` (racemic) [rac-KET, ketoconazole], for which, in [1], the IC50 at 24 h is 67.2 ± 24.8 µM. In addition, in series [2], the “AZ-AHR gene reporter - agonist efficacy” value is reported as 15,4 ± 9,4% and the EC50 turned out to be 5.2 µM. Besides, the IC50 in series [3] is 31.1 ± 3.7 µM. Further, the viability at 24 h, 50 µM in series [4] amounted to 46%. Moreover, in the series on AZ-GR cells (Homo sapiens), the IC50 was > 100 µM. The “increase of luciferase activity, agonist mode” value in [5] is listed as “approximately 5 fold”. Also, the “EROD activity (in words)” value in series [6] is on record as “increased the EROD activity in a concentration-dependent manner”.

For `CC(=O)N1CCN(c2ccc(OC[C@H]3CO[C@](Cn4ccnc4)(c4ccc(Cl)cc4Cl)O3)cc2)CC1` [(+)-KET, (2R,4S)-(+)-KET], the 50% inhibitory concentration (IC50) with AZ-AHR cells was 77.3 ± 23.9 µM; in series [3], 22.3 ± 6.3 µM; with AZ-GR cells it was 82.6 ± 23.7 µM. This compound also yielded an EC50 in series [2] of 3.2 µM. In series [2] (average value printed in Figure 1B, relative to TCDD), the “AZ-AHR gene reporter - agonist efficacy” value is on record as 23,5 ± 12,2%. For the same compound, in series [7], the “viability, % of control value” worked out at 15%. In series [5], the “increase of luciferase activity, agonist mode” value is on record as “did not induce luciferase activity”.
